Data from patent publication US20230279024A1, “TRIAZINE COMPOUND AND COMPOSITION AND USE THEREOF” (BEIJING FINDCURE BIOSCIENCES, LTD., priority 2020, published 2023).

Key:
AXL (h) kinase = AXL (h) kinase (Homo sapiens (Human), UniProt P30530); assay: AXL (h) kinase activity test (EZ Reader mobility shift, FLPeptide30); assay type: biochemical; conditions: ATP 100 μM, AXL 1 nM
Method: The effect of the disclosed compounds as protein kinase inhibitors can be evaluated by the following experiments. The AXL (h) kinase activity of the compounds of the invention is tested by the following methods:
Reagents used in the experiment were AXL (Carna Bioscience, Cat No.: 08-107) and FLPeptide30 (PerkinElmer, Cat No.: 760430). The instruments involved were thermotank (Thermo Scientific), oscillator (QILINBEIER), EZ Reader (PerkinElmer, Cat No.: 122919), Non-contact stage pipetting system (Labcyte Inc., Cat No.: Echo 550), and non-contact nanoliter pipetting system (TECAN, Cat No.: EVO200).
Compound dilution: 1) Dissolve the compound in DMSO to the appropriate concentration; 2) Using TECAN EVO200 to dilute 10 concentrations in 384 microplates by three times gradient, the highest concentration is 1 mM; Echo550 was used to transfer 20 nL solution from the dilution plate to the test plate.
2) Add 15 μL solution 1 to each well of the test plate and incubate at room temperature for 30 minutes.
4) Add 5 μL solution 2 to start the reaction, and the final volume of each well is 20 μL.
5) Incubated at 25° C. for 90 min, and then added 75 μL stop solution (containing 0.5 M EDTA) to terminate the reaction.
6) The sample of each well was analyzed using EZ reader.
1) Based on the measured conversion rate (CR), the Remaining Activity (%) of the kinase was calculated according to the following function:
2) XLFit (Equation 201) software was used to fit IC50.
The above methods can be used to obtain the inhibitory IC50 and/or inhibitory constant Ki.

Ba/F3 AXL cells = assay: Cell activity test: growth inhibition of Ba/F3 AXL cell line (CTG, 72 h); assay type: cell-based; conditions: Mus musculus, BaF3
Method: This experiment was conducted by detecting the inhibitory effect of compounds on the growth of Ba/F3 AXL cell line and Ba/F3 parental cell line. Cells in logarithmic growth stage were harvested and counted by platelet counter. Trypan blue rejection method was used to detect cell viability to ensure that the cell viability was above 90%. Adjust cell concentration; 90 μL cell suspension was added to 96-well plates, respectively; Cells in 96-well plates were cultured overnight at 37° C., 5% CO2 and 95% humidity. A 10-fold drug solution was prepared, with the highest concentration of 10 μM, and a total of 9 concentrations were diluted at 3.16 times the ratio. 10 μL drug solution was added to each well of the 96-well plate inoculated with cells, and three wells were set for each drug concentration; 96-well plates were incubated at 37° C., 5% CO2 and 95% humidity for 72 h, and CTG analysis was performed. Thaw the CTG reagent and balance the cell plates to room temperature for 30 minutes. Add the same volume of CTG solution to each well and vibrate on a fixed-rail shaker for 5 minutes to crack the cells. Place the cell plates at room temperature for 20 minutes to stabilize the cold light signal and read the cold light value. The GraphPad Prism 5.0 software was used to analyze the data, and the nonlinear S-curve regression was used to fit the data to obtain the dose-effect curve, and the IC50 value was calculated accordingly. Cell survival rate (%)=(Lum drug to be tested −Lum culture medium control)/(Lum cell control−Lum culture medium control)×100%.

Sequence of AXL (h) kinase (P30530 473-894): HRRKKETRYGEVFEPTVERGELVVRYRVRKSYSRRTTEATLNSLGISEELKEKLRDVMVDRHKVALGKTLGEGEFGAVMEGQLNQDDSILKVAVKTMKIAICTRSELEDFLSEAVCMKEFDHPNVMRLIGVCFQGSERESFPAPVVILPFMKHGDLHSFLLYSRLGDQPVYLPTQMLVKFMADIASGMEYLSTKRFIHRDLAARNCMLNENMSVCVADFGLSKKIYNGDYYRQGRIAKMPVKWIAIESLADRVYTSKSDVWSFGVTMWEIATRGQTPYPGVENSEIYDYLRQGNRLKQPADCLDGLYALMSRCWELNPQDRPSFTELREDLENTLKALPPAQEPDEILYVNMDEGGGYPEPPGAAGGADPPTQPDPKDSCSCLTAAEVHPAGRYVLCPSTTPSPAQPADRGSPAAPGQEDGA

| Compound | IC50 (AXL (h) kinase) [µM] | IC50 (Ba/F3 AXL cells) [µM] |
| --- | --- | --- |
| Nc1ncnn2c1c(-c1ccc(NC(=O)c3c4n(n(-c5ccccn5)c3=O)CCOC4)cc1)cc2[C@H]1CC[C@H](O)CC1 [example 32, N-(4-(4-amino-7-((1r,4r)-4-hydroxycyclohexyl)pyrrolo[2,1-f][1,2,4]triazin-5-yl)phenyl)-2-oxo-1-(pyridin-2-yl)-2,4,6,7-tetrahydro-1H-pyrazolo[5,1-c][1,4]oxazine-3-carboxamide] | < 0.005 | – |
| CC(C)(F)C(=O)N1CCC(c2cc(-c3ccc(NC(=O)c4c5n(n(-c6ccccn6)c4=O)CCCC5)cc3)c3c(N)ncnn23)CC1 [example 25, N-(4-(4-amino-7-(1-(2-fluoro-2-methylpropanoyl)piperidin-4-yl)pyrrolo[2,1-f][1,2,4]triazin-5-yl)phenyl)-2-oxo-1-(pyridin-2-yl)-1,2,4,5,6,7-hexahydropyrazolo[1,5-a]pyridine-3-carboxamide] | 0.005 to 0.05 | < 0.005 |
| CC(C)C(=O)N1CCC(c2cc(-c3ccc(NC(=O)c4c5n(n(-c6ccccn6)c4=O)CCCC5)cc3)c3c(N)ncnn23)CC1 [example 18, N-(4-(4-amino-7-(1-isobutyrylpiperidin-4-yl)pyrrolo[2,1-f][1,2,4]triazin-5-yl)phenyl)-2-oxo-1-(pyridin-2-yl)-1,2,4,5,6,7-hexahydropyrazolo[1,5-a]pyridine-3-carboxamide] | 0.005 to 0.05 | 0.005 to 0.05 |
| CC(C)C(=O)N1CCC(c2cc(-c3ccc(NC(=O)c4c5n(n(-c6ccccn6)c4=O)CCOC5)cc3F)c3c(N)ncnn23)CC1 [example 9, N-(4-(4-amino-7-(1-isobutyrylpiperidin-4-yl)pyrrolo[2,1-f][1,2,4]triazin-5-yl)-3-fluorophenyl)-2-oxo-1-(pyridin-2-yl)-2,4,6,7-tetrahydro-1H-pyrazolo[5,1-c][1,4]oxazine-3-carboxamide] | 0.005 to 0.05 | 0.005 to 0.05 |
| CC(C)(F)C(=O)N1CCC(c2cc(-c3ccc(NC(=O)c4c5n(n(-c6ccccn6)c4=O)CCOC5)cc3)c3c(N)ncnn23)CC1 [example 12, N-(4-(4-amino-7-(1-(2-fluoro-2-methylpropanoyl)piperidin-4-yl)pyrrolo[2,1-f][1,2,4]triazin-5-yl)phenyl)-2-oxo-1-(pyridin-2-yl)-2,4,6,7-tetrahydro-1H-pyrazolo[5,1-c][1,4]oxazine-3-carboxamide] | – | 0.005 to 0.05 |
| Nc1ncnn2c(C3CCNCC3)cc(-c3ccc(NC(=O)c4c5n(n(-c6ccccc6)c4=O)CCC5)cc3)c12 [example 5, N-(4-(4-amino-7-(piperidin-4-yl)pyrrolo[2,1-f][1,2,4]triazin-5-yl)phenyl)-2-oxo-1-phenyl-2,4,5,6-tetrahydro-1H-pyrrolo[1,2-b]pyrazole-3-carboxamide] | > 0.1 | > 0.1 |
| Nc1ncnn2c(C3CCN(C(=O)C4CC4)CC3)cc(-c3ccc(NC(=O)c4c5n(n(-c6ccncc6)c4=O)CCCC5)cc3)c12 [example 44] | 0.05 to 0.1 | – |
| Nc1ncnn2c(C3CCN(C(=O)C4CC4)CC3)cc(-c3ccc(NC(=O)c4c5n(n(-c6ccccn6)c4=O)CCOC5)cc3F)c12 [example 28, N-(4-(4-amino-7-(1-(cyclopropanecarbonyl)piperidin-4-yl)pyrrolo[2,1-f][1,2,4]triazin-5-yl)-3-fluorophenyl)-2-oxo-1-(pyridin-2-yl)-2,4,6,7-tetrahydro-1H-pyrazolo[5,1-c][1,4]oxazine-3-carboxamide] | – | 0.005 to 0.05 |
| Nc1ncnn2c(C3CCN(C(=O)C4CCC4)CC3)cc(-c3ccc(NC(=O)c4c5n(n(-c6ccccn6)c4=O)CCC5)cc3)c12 [example 40] | > 0.1 | – |
| Nc1ncnn2c(C3CCC(O)CC3)cc(-c3ccc(NC(=O)c4c5n(n(-c6ccccn6)c4=O)CCOC5)cc3)c12 (centres unmarked) [example 32, N-(4-(4-amino-7-((1r,4r)-4-hydroxycyclohexyl)pyrrolo[2,1-f][1,2,4]triazin-5-yl)phenyl)-2-oxo-1-(pyridin-2-yl)-2,4,6,7-tetrahydro-1H-pyrazolo[5,1-c][1,4]oxazine-3-carboxamide] | – | 0.005 to 0.05 |
| CC(C)(F)C(=O)N1CCC(c2cc(-c3ccc(NC(=O)c4c5n(n(-c6ccccn6)c4=O)CCOC5)cc3F)c3c(N)ncnn23)CC1 [example 27, N-(4-(4-amino-7-(1-(2-fluoro-2-methylpropanoyl)piperidin-4-yl)pyrrolo[2,1-f][1,2,4]triazin-5-yl)-3-fluorophenyl)-2-oxo-1-(pyridin-2-yl)-2,4,6,7-tetrahydro-1H-pyrazolo[5,1-c][1,4]oxazine-3-carboxamide] | 0.05 to 0.1 | 0.005 to 0.05 |
| CC(C)(F)C(=O)N1CCC(c2cc(-c3ccc(NC(=O)c4c5n(n(-c6cccnn6)c4=O)CCCC5)cc3)c3c(N)ncnn23)CC1 [example 52] | 0.005 to 0.05 | – |
| [2H][C@]1(O)CC[C@H](c2cc(-c3ccc(NC(=O)c4c5n(n(-c6ccccc6)c4=O)CCOC5)cc3F)c3c(N)ncnn32)CC1 [example 33, N-(4-(4-amino-7-((1r,4r)-4-hydroxycyclohexyl-4-d)pyrrolo[2,1-f][1,2,4]triazin-5-yl)-3-fluorophenyl)-2-oxo-1-phenyl-2,4,6,7-tetrahydro-1H-pyrazolo[5,1-c][1,4]oxazine-3-carboxamide] | 0.005 to 0.05 | – |
| CC(C)C(=O)N1CCC(c2cc(-c3ccc(NC(=O)c4c5n(n(-c6ccccn6)c4=O)CCCC5)cc3F)c3c(N)ncnn23)CC1 [example 17, N-(4-(4-amino-7-(1-isobutyrylpiperidin-4-yl)pyrrolo[2,1-f][1,2,4]triazin-5-yl)-3-fluorophenyl)-2-oxo-1-(pyridin-2-yl)-1,2,4,5,6,7-hexahydropyrazolo[1,5-a]pyridine-3-carboxamide] | – | 0.005 to 0.05 |

The remaining lines, values ahead:

| IC50 (AXL (h) kinase) [µM] | IC50 (Ba/F3 AXL cells) [µM] | Compound |
| --- | --- | --- |
| 0.05 to 0.1 | 0.005 to 0.05 | CC(C)(O)C(=O)N1CCC(c2cc(-c3ccc(NC(=O)c4c5n(n(-c6ccccn6)c4=O)CCOC5)cc3F)c3c(N)ncnn23)CC1 [example 14, N-(4-(4-amino-7-(1-(2-hydroxy-2-methylpropanoyl)piperidin-4-yl)pyrrolo[2,1-f][1,2,4]triazin-5-yl)-3-fluorophenyl)-2-oxo-1-(pyridin-2-yl)-2,4,6,7-tetrahydro-1H-pyrazolo[5,1-c][1,4]oxazine-3-carboxamide] |
| – | < 0.005 | Nc1ncnn2c(C3CCC(O)CC3)cc(-c3ccc(NC(=O)c4c5n(n(-c6ccccc6)c4=O)CCOC5)nc3)c12 (centres unmarked) [example 23] |
| – | < 0.005 | CC(C)C(=O)N1CCC(c2cc(-c3ccc(NC(=O)c4c5n(n(-c6ccccc6)c4=O)CCC5)cc3)c3c(N)ncnn23)CC1 [example 6, N-(4-(4-amino-7-(1-isobutyrylpiperidin-4-yl)pyrrolo[2,1-f][1,2,4]triazin-5-yl)phenyl)-2-oxo-1-phenyl-2,4,5,6-tetrahydro-1H-pyrrolo[1,2-b]pyrazole-3-carboxamide] |
| 0.005 to 0.05 | < 0.005 | Cn1cc(-n2c(=O)c(C(=O)Nc3ccc(-c4cc(C5CCN(C(=O)C6CC6)CC5)n5ncnc(N)c45)cc3)c3n2CCCC3)cn1 [example 47] |
| 0.005 to 0.05 | < 0.005 | CC(C)(F)C(=O)N1CCC(c2cc(-c3ccc(NC(=O)c4c5n(n(-c6ccccn6)c4=O)CCCC5)cc3F)c3c(N)ncnn23)CC1 [example 26, N-(4-(4-amino-7-(1-(2-fluoro-2-methylpropanoyl)piperidin-4-yl)pyrrolo[2,1-f][1,2,4]triazin-5-yl)-3-fluorophenyl)-2-oxo-1-(pyridin-2-yl)-1,2,4,5,6,7-hexahydropyrazolo[1,5-a]pyridine-3-carboxamide] |
| – | < 0.005 | Nc1ncnn2c1c(-c1ccc(NC(=O)c3c4n(n(-c5ccccc5)c3=O)CCCC4)cc1F)cc2[C@H]1CC[C@H](O)CC1 [example 24, N-(4-(4-amino-7-((1r,4r)-4-hydroxycyclohexyl)pyrrolo[2,1-f][1,2,4]triazin-5-yl)-3-fluorophenyl)-2-oxo-1-phenyl-1,2,4,5,6,7-hexahydropyrazolo[1,5-a]pyridine-3-carboxamide] |
| – | < 0.005 | CC(C)C(=O)N1CCC(c2cc(-c3ccc(NC(=O)c4c5n(n(-c6ccccc6)c4=O)CCOC5)nc3)c3c(N)ncnn23)CC1 [example 35, N-(5-(4-amino-7-(1-isobutyrylpiperidin-4-yl)pyrrolo[2,1-f][1,2,4]triazin-5-yl)pyridin-2-yl)-2-oxo-1-phenyl-2,4,6,7-tetrahydro-1H-pyrazolo[5,1-c][1,4]oxazine-3-carboxamide] |
